From paper PMC6302903, “Protein and Chemical Determinants of BL-1249 Action and Selectivity for K2P Channels” (ACS Chemical Neuroscience, 2018)

How the values were obtained:
Type in all cases: cell-based
[1] = molecular target: T1, TRAAK/EK-1 M4-C (Mus musculus, UniProt O88454+P97438, F242V/L235V/N256D/S249A/T252S/T253M); assay: TEVC of chimera TRAAK/EK-1 M4-C; details: Xenopus oocytes
T1 construct: and Tyr234 K2P4.1(TRAAK); expressed in transfected cells; host or cells: Xenopus laevis oocytes, mRNA injected; chimera built by Gibson assembly

[2] = molecular target: T2, K2P2.1(TREK-1) (Mus musculus, UniProt P97438); assay: TEVC of K2P2.1(TREK-1) in Xenopus oocytes; parameters: expressed in transfected cells; host or cells: Xenopus laevis oocytes injected with mRNA made from pGEMHE/pMO
T2 sequence (P97438 1-411 isoform P97438-2): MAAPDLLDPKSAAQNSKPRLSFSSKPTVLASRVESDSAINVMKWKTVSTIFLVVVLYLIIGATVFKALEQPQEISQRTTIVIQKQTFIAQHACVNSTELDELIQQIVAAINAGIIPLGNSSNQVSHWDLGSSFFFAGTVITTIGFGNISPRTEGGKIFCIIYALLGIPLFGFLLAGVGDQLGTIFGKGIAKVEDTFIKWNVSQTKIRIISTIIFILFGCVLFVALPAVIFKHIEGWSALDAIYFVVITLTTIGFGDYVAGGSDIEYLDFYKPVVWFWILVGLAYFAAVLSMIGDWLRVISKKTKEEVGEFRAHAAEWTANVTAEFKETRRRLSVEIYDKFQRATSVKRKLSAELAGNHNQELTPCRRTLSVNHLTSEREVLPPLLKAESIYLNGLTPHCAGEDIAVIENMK
Text: Constructs for murine K2P channels, including K2P2.1(TREK-1) (Gene ID 16526), K2P10.1(TREK-2) (Gene ID 72258), K2P4.1(TRAAK) (Gene ID 16528), K2P5.1(TASK-2) (Gene ID 16529), K2P3.1(TASK-1) (Gene ID 16527), K2P9.1(TASK-3) (Gene ID 223604), and K2P18.1(TRESK) (Gene ID 332396) in pGEMHE/pMO, were used for Xenopus oocyte experiments as previously described.[10],[26] Murine K2P2.1(TREK-1) (Gene ID 16526) was expressed in HEK-293 cells using a pIRES-EGFP construct as previously described.[26] Murine K2P13.1(THIK-1) (Gene ID 217826) and K2P1.1(TWIK-1) (Gene ID 16525) were cloned into pGEMHE/pMO for use in Xenopus oocytes. Chimeras were designed using EMBOSS Needle pairwise sequence alignment tool[58] to match homologous helices in K2P2.1(TREK-1) and K2P4.1(TRAAK) and were assembled using the Gibson assembly method.[59] Chimera boundaries are Thr152 (TREK-1/AAK M2-C), Trp199 (TREK-1/AAK M3-C), Y272 (TREK-1/AAK M4-C), Thr114 (TRAAK/EK-1 M2-C), Trp161 (TRAAK/EK-1 M3-C), and Tyr234 K2P4.1(TRAAK). All sequences were verified using DNA sequencing.
Xenopus laevis oocytes were harvested in accordance with UCSF IACUC protocol AN129690 and digested in calcium-free ND-96 (96 mM NaCl, 2 mM KCl, 3.8 mM MgCl2) immediately following harvest, as previously described.[6],[10] Digested oocytes were maintained in standard ND96 (96 mM NaCl, 2 mM KCl, 1.8 mM CaCl2, 2 mM MgCl2) with antibiotics (100 units mL^–1 penicillin, 100 μg mL^–1 streptomycin, 50 μg mL^–1 gentimycin). Defolliculated stage V–VI oocytes were injected with 0.2–6.0 ng of mRNA in 50 nL, and currents were recorded 24–48 h after injection. mRNA was synthesized from plasmid DNA using mMessage mMachine Kit (T7 promoter, Ambion, Life Technologies) and purified using RNEasy Kit (Qiagen). Injected oocytes were impaled with two standard microelectrodes (0.2–1.0 MΩ) filled with 3 M KCl and subjected to constant perfusion of standard ND96 during recording. Currents were amplified using the GeneClamp 500B (MDS Analytical Technologies) amplifier controlled by the pClamp software (Molecular Devices). Data were digitized at 1 kHz using Digidata 1332A (MDS Analytical Technologies). For all experiments with small molecules, basal currents were evoked using 1 s long ramps from −150 to +50 mV under constant perfusion of ND96. Once stabilized basal currents were recorded, compounds were perfused at various concentrations in standard ND96 and currents were allowed to increase to stabilization before recording final current. Fold activation upon compound application is expressed as I/I0 (0 mV), derived from the current at 0 mV in the presence of compound divided by the basal current at 0 mV in standard ND96 without compound. Data were analyzed and plotted using Graphpad Prism Version 5 (GraphPad Software, San Diego California USA, www.graphpad.com). […] In the case of BL-1249-acid EC50 estimation, upper bound of I/I0 was set to 20 to account for the strong stimulation of BL-1249-acid.

[3] = molecular target: T3, TREK-1/AAK M3-C (Mus musculus, UniProt O88454+P97438); assay: TEVC of chimera TREK-1/AAK M3-C; details: Xenopus oocytes
T3 construct: Trp199 (TREK-1/AAK M3-C); expressed in transfected cells; host or cells: Xenopus laevis oocytes, mRNA injected; chimera built by Gibson assembly
T3 sequence (P97438+O88454 with tags, fused parts or gaps P97438:N200H/P97438:S202P/P97438:Q203P/P97438:T204G/P97438:K205L/P97438:I206V/P97438:I208S/P97438:I209L/P97438:T211A/P97438:I212V/P97438:I213L/P97438:I215L/P97438:F217I/P97438:V220L/P97438:A224L/P97438:L225T/P97438:A227T/P97438:V228F/P97438:I229V/P97438:K231S/P97438:H232Y/P97438:I233M/P97438:G235S/P97438:A238K/P97438:D240E/P97438:V246I/P97438:I247V/P97438:I252V/P97438:A259P/P97438:G261D/P97438:S262G/P97438:D263T/P97438:I264G/P97438:E265Q/P97438:Y266N/P97438:L267S/P97438:D268P/P97438:F269A/P97438:K271Q/P97438:V273L/P97438:V280F/P97438:A287S/P97438:S290T/P97438:M291T/P97438:D294N): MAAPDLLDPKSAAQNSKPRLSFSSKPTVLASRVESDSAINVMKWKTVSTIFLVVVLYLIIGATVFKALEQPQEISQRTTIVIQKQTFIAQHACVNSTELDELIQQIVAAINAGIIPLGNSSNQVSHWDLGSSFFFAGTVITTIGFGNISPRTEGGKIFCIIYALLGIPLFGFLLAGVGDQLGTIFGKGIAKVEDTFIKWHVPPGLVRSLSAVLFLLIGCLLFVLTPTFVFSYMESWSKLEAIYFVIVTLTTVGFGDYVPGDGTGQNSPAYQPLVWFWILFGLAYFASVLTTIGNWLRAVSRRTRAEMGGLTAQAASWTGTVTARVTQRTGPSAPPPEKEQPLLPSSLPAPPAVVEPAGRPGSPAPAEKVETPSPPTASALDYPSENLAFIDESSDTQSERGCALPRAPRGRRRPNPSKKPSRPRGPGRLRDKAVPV

T1 sequence (O88454+P97438 fused with the stated changes): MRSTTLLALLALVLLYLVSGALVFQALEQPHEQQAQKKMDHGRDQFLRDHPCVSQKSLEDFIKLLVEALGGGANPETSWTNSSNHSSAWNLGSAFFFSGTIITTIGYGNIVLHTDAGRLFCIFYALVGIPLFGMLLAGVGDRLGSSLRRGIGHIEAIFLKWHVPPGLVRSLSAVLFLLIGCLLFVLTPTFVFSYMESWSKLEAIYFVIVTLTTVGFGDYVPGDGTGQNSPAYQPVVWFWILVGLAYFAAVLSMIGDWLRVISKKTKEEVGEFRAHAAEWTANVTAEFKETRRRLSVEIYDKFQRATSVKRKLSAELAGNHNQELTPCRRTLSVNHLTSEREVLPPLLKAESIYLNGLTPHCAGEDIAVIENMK

K2P2.1(TREK-1) current response ([2]; extracellular application of 10 μM)	EC50 ([2]; extracellular application, fold activation I/I0 at 0 mV)	Compound	EC50 [1]	effect on K2P2.1(TREK-1) current (in words) ([2]; dose-response)	EC50 [3]
–	–	CS(=O)(=O)Nc1ccc(C(=O)NCc2ccc(Cl)cc2Cl)cc1 [ML335]	> 100 µM	robustly responded	> 100 µM
clear activation responses	5.5 ± 1.2 µM	c1ccc(-c2nnn[nH]2)c(Nc2cccc3c2CCCC3)c1 [BL-1249, (5,6,7,8-tetrahydro-naphthalen-1-yl)-[2-(1H-tetrazol-5-yl)-phenyl]-amine]	45 ± 2 µM	–	28 ± 2 µM
